Among the test systems are SK-MEL-5 melanoma; SNB-19 CNS; HCT-116 colon; SNB-75 CNS; KM12 colon; SN12C renal; UACC-62 melanoma; 786-0 renal; HCC-2998 colon; U251 CNS.
Holding throughout (experiment): NCI tumour cell line growth inhibition, 48 h

Each structure is given as a SMILES string.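 These data come from cells grown in 96-well plates and exposed to compound for 48 hours at five concentrations. GI50 is the concentration that inhibits growth by half. TGI denotes the concentration required for complete inhibition of growth.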

Regarding `CN(C)CCCC1(c2ccc(F)cc2)OCc2cc(-c3ccc4cc[nH]c4c3)ccc21` (stereo unspecified), the GI50 with SK-MEL-5 melanoma was 1.81 µM; in the test with SNB-19 CNS, 1.79 µM; in the test with HCT-116 colon it was 1.88 µM; in the test with SNB-75 CNS, 1.35 µM; in the test with KM12 colon it was 1.85 µM; in the test on SN12C renal, 1.73 µM. Also, the GI50 is 1.85 µM with UACC-62 melanoma, 1.78 µM with 786-0 renal and 1.84 µM in the test with HCC-2998 colon. Also, the TGI in the test on SK-MEL-5 melanoma came to 3.25 µM; with SNB-19 CNS, 3.67 µM; with HCT-116 colon, 3.57 µM; with SNB-75 CNS, 3.54 µM; in the test with KM12 colon it was 3.42 µM; in the test with SN12C renal it was 3.56 µM. Moreover, the results for the TGI in the test with UACC-62 melanoma, in the test on 786-0 renal and with HCC-2998 colon were 3.77 µM, 3.41 µM and 3.48 µM, respectively.
On to `Clc1ccc2c(NCCCN3CCN(c4nc(-n5ccnc5)nc5ccccc45)CC3)ccnc2c1`, for which the GI50 in the test with SK-MEL-5 melanoma was 1.74 µM; with SNB-19 CNS it was 2.55 µM; with SNB-75 CNS, 1.58 µM; with SN12C renal, > 100 µM; in the test with UACC-62 melanoma, > 37.7 µM; in the test with 786-0 renal, 1.66 µM. The GI50 with HCC-2998 colon is > 100 µM; in the test on U251 CNS it was 1.89 µM. The TGI in the test on SK-MEL-5 melanoma is 3.17 µM; in the test with SNB-19 CNS, 6.49 µM; with SNB-75 CNS it was 3.25 µM; in the test with SN12C renal, > 100 µM; with UACC-62 melanoma, > 67.1 µM; in the test with 786-0 renal it was 3.21 µM. Further, the TGI in the test with HCC-2998 colon is > 100 µM; in the test with U251 CNS it was 3.53 µM.
For the compound `O=S(=O)(Nc1ccc(Cl)c(C(F)(F)F)c1)c1ccc(-c2cnc(C3CC3)o2)cc1`, the GI50 is 0.296 µM in the test with SK-MEL-5 melanoma; 0.187 µM in the test with HCT-116 colon; 0.125 µM with SNB-75 CNS; 0.187 µM in the test with KM12 colon; 1.05 µM in the test on SN12C renal; 0.203 µM in the test with UACC-62 melanoma. Further, the GI50 in the test on 786-0 renal was 1.1 µM; in the test on HCC-2998 colon, 1.09 µM; in the test with U251 CNS, 0.326 µM. The TGI in the test on SK-MEL-5 melanoma was determined as 1.75 µM; in the test with HCT-116 colon, 4.14 µM; in the test on SNB-75 CNS, 1.72 µM; in the test with KM12 colon, 7.36 µM; in the test with SN12C renal it was 4.71 µM; in the test on UACC-62 melanoma it was 2.2 µM. The figures for the TGI in the test on 786-0 renal, in the test with HCC-2998 colon and in the test with U251 CNS were 3.58 µM, 3.31 µM and 10.9 µM, respectively.
For `COc1ccc(-c2c(N)[n+]([O-])c3cc(C)c(C)cc3[n+]2[O-])cc1OC`, the TGI is 74.3 µM in the test with SK-MEL-5 melanoma; > 100 µM with SNB-19 CNS; > 100 µM in the test on SNB-75 CNS; > 100 µM in the test on KM12 colon; > 100 µM in the test with SN12C renal; > 100 µM in the test with UACC-62 melanoma. Further, the TGI with 786-0 renal, in the test with HCC-2998 colon and in the test with U251 CNS was > 100 µM in each case.
On to `COc1cc(C2C(C(=O)O)=C(C)Oc3cc4c(cc32)OCO4)cc(OC)c1OC` (stereo unspecified), for which the TGI in the test on SK-MEL-5 melanoma is > 100 µM; in the test on SNB-19 CNS, > 100 µM; with HCT-116 colon it was > 100 µM; in the test on SNB-75 CNS, 53.1 µM; in the test on SN12C renal, > 100 µM; in the test with UACC-62 melanoma, > 100 µM. Besides, the TGI with 786-0 renal and with U251 CNS was > 100 µM in each case.
With `O=c1cccc(C#CCCCCOC2CCCO2)o1` (stereo unspecified), the GI50 is 7.47 µM in the test with SK-MEL-5 melanoma; > 28.6 µM with SNB-19 CNS; 6.39 µM with HCT-116 colon; 11.4 µM in the test on SNB-75 CNS; 20.4 µM in the test on KM12 colon; 98.6 µM with SN12C renal. Moreover, the GI50 was 15.9 µM in the test on UACC-62 melanoma, 4.03 µM in the test with 786-0 renal and 28.8 µM in the test on U251 CNS. Also, the TGI was > 16.4 µM in the test on SK-MEL-5 melanoma; > 56.5 µM in the test with SNB-19 CNS; > 23.2 µM with HCT-116 colon; > 21.4 µM with SNB-75 CNS; > 45.8 µM in the test with KM12 colon; > 100 µM with SN12C renal. Moreover, the TGI in the test with UACC-62 melanoma was > 56.8 µM; in the test with 786-0 renal, 23.6 µM; in the test with U251 CNS, > 70.1 µM.
In the case of `CCCCCCCCCCCCCCCCCC(=O)NCCCNCCCNC(=O)CCCCCCCCCCCCCCCCC`, the TGI in the test on SK-MEL-5 melanoma, with SNB-19 CNS, in the test with HCT-116 colon, in the test on SN12C renal, with UACC-62 melanoma and in the test on 786-0 renal was > 100 µM throughout. The TGI in the test with HCC-2998 colon and with U251 CNS was > 100 µM each time.
Consider `CC1CC2C3CC(F)C4=CC(=O)C=CC4(C)C3(F)C(O)CC2(C)C1(O)C(=O)CO` (stereo unspecified), for which the TGI in the test on SK-MEL-5 melanoma, in the test with SNB-19 CNS, with HCT-116 colon, in the test with SNB-75 CNS, with KM12 colon and with UACC-62 melanoma was > 100 µM throughout. In addition, the TGI with 786-0 renal, with HCC-2998 colon and in the test with U251 CNS was > 100 µM throughout.
Consider `COC(=O)C(C(=O)C(=O)Nc1ccccc1OC)c1csc(-n2nc(-c3ccccc3)cc2-c2ccccc2)n1` (stereo unspecified), for which the TGI in the test with SNB-19 CNS was > 100 µM; with HCT-116 colon, > 100 µM; with SNB-75 CNS it was 92.7 µM; with KM12 colon, > 100 µM; with SN12C renal, > 100 µM; in the test with UACC-62 melanoma, > 100 µM. The TGI in the test with 786-0 renal, in the test with HCC-2998 colon and in the test on U251 CNS was > 100 µM in each case.
On to `CC1=CCC2(C#N)CCC1C2=O` (stereo unspecified), for which the TGI in the test on SK-MEL-5 melanoma, in the test with SNB-19 CNS, in the test with HCT-116 colon, with KM12 colon, with SN12C renal and with UACC-62 melanoma was > 100 µM each time. The TGI in the test on 786-0 renal and with U251 CNS was > 100 µM in each case.
As to `C/C=C/C=C/[C@H]1Cc2cc(O)cc(O)c2O1`, the TGI in the test with SK-MEL-5 melanoma, in the test with SNB-19 CNS, in the test with HCT-116 colon, in the test with SNB-75 CNS, in the test on KM12 colon and in the test on SN12C renal was > 100 µM in each case. The TGI in the test on UACC-62 melanoma, with 786-0 renal and in the test on U251 CNS was > 100 µM throughout.
For the compound `COc1ccc2cc(C(=O)/C=C/c3ccc(OC)c(OC)c3)ccc2c1`, the GI50 is 2.82 µM with SK-MEL-5 melanoma; 27.2 µM in the test on SNB-19 CNS; 2.69 µM in the test on HCT-116 colon; 4.82 µM with KM12 colon; 13.5 µM in the test on SN12C renal; 16.2 µM in the test with UACC-62 melanoma. Moreover, the GI50 in the test on 786-0 renal was 18.8 µM; with U251 CNS it was 11.8 µM. Further, the TGI is 16.6 µM with SK-MEL-5 melanoma; 80 µM in the test with SNB-19 CNS; 10.3 µM in the test with HCT-116 colon; 32.1 µM in the test on KM12 colon; 32.6 µM with SN12C renal; 39.2 µM in the test on UACC-62 melanoma. The TGI in the test on 786-0 renal came to 35.4 µM; with U251 CNS, 58.8 µM.
